Data on ten molecules can be found in patent US20070053934A1, “Polyvalent multimeric composition containing active polypeptides, pharmaceutical compositions and methods of using the same” (priority 2005, published 2007).

A word on the IC50: it is the point on the concentration scale where inhibition reaches its midpoint. What is called Kd is a measure of binding affinity in units of concentration.

Where a SMILES comes first, the peptide text is derived from it. Bridges are numbered along the chain shown (N, C = ends). Roman numbers before positions name the chains, in order. Where no end group is shown, it is not given here. Side-chain parts run from the residue outwards. [ ]: non-standard residue; d: D form. βAla = NCCC(=O)O

Data set [1] concerns E. Coli (D31).
For data set [2], the system named is B. anthracis (Sterne 34F2). The following applies: mean of three experiments.
Data set [3] concerns fresh sheep erythrocytes. Briefly: Hemolysis assay HD50 (Examples 1B and 2). The following applies: red cells of sheep. It is filed as cell-based. How it is done: Stock solutions of samples were prepared by the same procedure as in antibacterial assays. Hemolytic activity of monomeric peptides and multivalent ones were assessed on fresh sheep erythrocytes (Fitzgerald, Inc., MA) in 35 mM PBS buffer, 150 mM NaCl, pH 7.0. Peptide concentrations corresponding to 50% hemolysis were used as hemolytic dose (HD50) determined from dose-response curve (National Committee for Clinical Laboratory Standards. 2004, Methods for dilution antimicrobial susceptibility tests for bacteria that grow aerobically; sixth edition, approved standard M100-S14. National Committee for Clinical Laboratory Standards. Wayne, Pa.). Aliquots of cell suspension were mixed in eppendorf tubes with varying volumes of stocks and buffer for a total volume of 1 mL. Solutions containing same volume of DMSO without samples were used as control. These tubes were incubated at 37° C. for 1 hr, and then spun down at 3,000 rpm for 5 mins. The resulting supernatant was diluted by a factor of 40 in distilled water. The absorbances of the dilutions at 540 nm were measured in the Genesys 5 Spectrophotometer (Thermo Spectronic, Inc., NY). Zero hemolysis and 100% hemolysis controls were obtained by incubating the cells with buffer and 20% Tween, respectively. Hemolytic index (HI) was defined as HI=HD50/IC50. […]

A further data set relates to S Aureus (ATCC BAA-44). The following applies: mean of three experiments.
The test system of the next data set is HIV. Briefly: Inhibition of HIV infectivity by gp340-derived peptides. Particulars: peptide concentrations up to 10 ug/ml. Type of data set: cell-based.
The subject of data set [4] is fresh sheep erythrocytes. It is filed as cell-based. The following applies: pH 7.2. As to the method:
Hemolytic activity of model peptides was assessed on fresh sheep erythrocytes (Fitzgerald Inc., Concord, Mass.). Peptide concentrations yielding 50% hemolysis were used as hemolytic dose (HD50) determined from dose-response curves (Oren, Z., and Y. Shai. 1997. Selective lysis of bacteria but not mammalian cells by diastereomers of melittin: Structure-function study. Biochem. 36:1826-1835). […] The resulting supernatant was diluted by a factor of 40 in distilled water. The absorbances of the supernatant at λ=540 nm (OD540) were measured in the UV Spectrophotometer. Zero hemolysis and 100% hemolysis controls were obtained by incubating the cells with buffer and 1% Triton-X, respectively. Hemolytic index (HI) was defined as HI=HD50/IC50.

Data set [5] concerns E. Coli (D31). The following applies: read-out: IC50 E. coli; 50% inhibition of growth, 18 h; mean of three experiments.
The subject of a further data set is S. aureus (ATCC BAA-44). The following applies: ATCC BAA-44, 18 h.
A further data set has as its system HIV-1 NL4-3. Briefly: HIV inhibition assay, p24 readout. The following applies: H9 cells, p24 in culture supernatant.
The test system of the next data set is HIV-1 IIIB. Kind of data set: HIV inhibition assay, p24 readout.
Data set [6] deals with HIV-1 attachment to and infection of H9 cells. Kind of data set: Viral attachment assay. Type of data set: cell-based. Particulars: for cell-associated virus (HIV-1 attachment to target cells): H9 cells, cell-associated p24 after virus exposure. How it is done: FIG. 8. Effect of gp-340 or N-SRCR on HIV-1 attachment and infection of cells. The H9 cells were treated with increasing concentrations of gp-340 (A and B) or N-SRCR (C) before and during HIV-1 exposure. After 4 hours, the cells were extensively washed of virus and either treated with or without trypsin at room temperature for 10 min and lysed for total cell-associated p24 measurement or re-fed with fresh medium to continue culture for 4 days to determine infection (data only for gp-340 shown). The values were average of triplicate wells and bars represent standard errors.
0.5×10^6 H9 cells were pre-incubated with purified gp-340 ranging from 2 to 10 μg/ml, or N-SRCR at 0.5 μg/ml at 37° C. for 60 min before viral exposure at 50 ng/ml p24 at 37° C. for 3 hours. The exposed cells were washed repeatedly to remove unbound virus, either lysed for cell-associated viral p24 measurement, treated with trypsin for 5 min before lysis, or refed with culture medium and maintained in culture for an additional 4 days. Culture medium was collected, cleared of cellular debris, lysed and viral p24 was measured.

The test system of data set [7] is HIV-1 gp120MN V3 peptide P6283. Particulars: Ca++-dependent, ELISA. (In general: ELISA stands for enzyme-linked immunosorbent assay.)
For a further data set, the system named is HIV-1 BaL. Kind of data set: HIV inhibition assay, p24 readout. Particulars: IL-2 stimulated human PBMCs, p24 in culture supernatant.
A further data set has as its target gp120 (Human immunodeficiency virus type 1 group M subtype B, UniProt P03375). The following applies: read-out: Kd of gp340 binding to gp120; earlier studies of the applicants.
The mark [8] stands for this setting: H9 cells, p24 in culture supernatant.

Turning to `CC(=O)N[C@@H](Cc1c[nH]c2ccccc12)C(=O)N[C@@H](CCCNC(=N)N)C(=O)N[C@@H](Cc1c[nH]c2ccccc12)C(=O)N[C@@H](CCCNC(=N)N)C(=O)NCCCC[C@H](NC(=O)[C@H](CCCNC(=N)N)NC(=O)[C@H](Cc1c[nH]c2ccccc12)NC(=O)[C@H](CCCNC(=N)N)NC(=O)[C@H](Cc1c[nH]c2ccccc12)NC(C)=O)C(=O)NCCCC[C@H](NC(=O)[C@H](CCCCNC(=O)[C@H](CCCNC(=N)N)NC(=O)[C@H](Cc1c[nH]c2ccccc12)NC(=O)[C@H](CCCNC(=N)N)NC(=O)[C@H](Cc1c[nH]c2ccccc12)NC(C)=O)NC(=O)[C@H](CCCNC(=N)N)NC(=O)[C@H](Cc1c[nH]c2ccccc12)NC(=O)[C@H](CCCNC(=N)N)NC(=O)[C@H](Cc1c[nH]c2ccccc12)NC(C)=O)C(=O)NCCC(N)=O` [(Ac—WRWR)4-lys2-Lys-Beta-Ala-NH2] (I: Ac-WRWRK([Arg-Trp-Arg-Trp-Ac])K[βAla]-NH2 / II: Ac-WRWRK([Arg-Trp-Arg-Trp-Ac]); amide I:6-II:C), the “Antimicrobial activity IC50” value in the data set with E. Coli (D31) [1] worked out at 9.5 µg/mL; in data set [2], 15.5 µg/mL; in the data set on S Aureus (ATCC BAA-44) it was 12.5 µg/mL. Moreover, the “Hemolytic activity HD50” value in the data set with fresh sheep erythrocytes [3] stood at 137 µg/mL.
On to QGRVEVLYRGSWGEVC [16 mer], for which the “inhibition of HIV infectivity (anti-HIV activity)” value in the data set on HIV is “only modest inhibition of HIV infectivity”.
Regarding `N=C(N)NCCC[C@H](NC(=O)[C@H](Cc1c[nH]c2ccccc12)NC(=O)[C@H](CCCNC(=N)N)NC(=O)[C@H](Cc1c[nH]c2ccccc12)NC(=O)[C@H](CCCNC(=N)N)NC(=O)[C@H](Cc1c[nH]c2ccccc12)NC(=O)[C@H](CCCNC(=N)N)NC(=O)[C@H](Cc1c[nH]c2ccccc12)NC(=O)[C@@H](N)CCCNC(=N)N)C(=O)N[C@@H](Cc1c[nH]c2ccccc12)C(N)=O` [(RW)5—NH2], the “HD50 Red blood cell” value with fresh sheep erythrocytes [4] stood at 76 µM. In addition, the IC50 in the data set with E. Coli (D31) [5] stood at 6.2 µM; in the data set with S. aureus (ATCC BAA-44) it was 3.6 µM.
RWRWRWRW-NH2 [(RW)4—NH2]: the “HD50 Red blood cell” value in the data set with fresh sheep erythrocytes [4] was determined as 100 µM. For the same molecule, the IC50 in the data set on E. Coli (D31) [5] amounted to 9.6 µM; with S. aureus (ATCC BAA-44) it was 5.1 µM.
“N-SRCR: recombinant N-terminal gp340 fragment: first SRCR domain and half of first SID, with His-6 and HSV gD tags, 35 kDa”: the “estimated ID90 for NL4-3” value in the data set with HIV-1 NL4-3 is 1.5 µg/mL. Besides, in the data set with HIV-1 IIIB (setting [8]), the “ID75 for IIIB” value is 2 µg/mL and the “ID90 for IIIB” value is reported as “not achieved”. For the same molecule, the “binding to immobilized gp120” value in the data set with HIV-1 gp120 (gp120 captured with antibody D7324, ELISA) was “shown to bind immobilized gp120”. For the same molecule, the “binding to gp120 upon sCD4 treatment of gp120” value with HIV-1 gp120 (sCD4 pre-binding, detected by Ab-1527) is recorded as “significantly increased”. Moreover, the “concentration not toxic to H9 cells” value with H9 cells was “up to 10 μg/ml”. In addition, in data set [6], the “cell-associated virus (HIV-1 attachment to target cells)” value is “did not effect viral attachment”. Also, the “binding to the peptide P6283” value in data set [7] was “comparable to binding of gp-340”. For the same molecule, the “estimated ID90 for BaL” value in the data set on HIV-1 BaL is 1.1 µg/mL.
As for GRVEYLXBGSW (GRVEVLYRGSW) [11 mer], in the data set on HIV, the “inhibition of HIV infectivity (anti-HIV activity)” value is reported as “low, but measurable anti-HIV activity”.
Turning to `N=C(N)NCCC[C@H](NC(=O)[C@H](Cc1c[nH]c2ccccc12)NC(=O)[C@@H](N)CCCNC(=N)N)C(=O)N[C@@H](Cc1c[nH]c2ccccc12)C(N)=O` [(RW)2—NH2] (H-RWRW-NH2), in the data set on fresh sheep erythrocytes [4], the “HD50 Red blood cell” value amounted to 3700 µM. Besides, the 50% inhibitory concentration (IC50) worked out at 730 µM with E. Coli (D31) [5] and 210 µM in the data set on S. aureus (ATCC BAA-44).
For RWRWRW-NH2 [(RW)3—NH2], in that order: 210 µM, 16 µM and 8 µM.
The matching figures for `N=C(N)NCCC[C@H](N)C(=O)N[C@@H](Cc1c[nH]c2ccccc12)C(N)=O` [RW—NH2] (H-Arg-Trp-NH2): 8900 µM, 4300 µM and 2100 µM.
Consider “gp340: 340 kDa salivary agglutinin glycoprotein of the SRCR superfamily; recombinant or purified from saliva”, for which the Kd with gp120 was 0.0058 µM. Also, in the data set with HIV-1 IIIB (culture supernatant of transfected 293 cells, compared with SAG from saliva), the “blocking HIV-1 infection by expressed full length gp340” value was “as active in blocking HIV-1 infection as SAG purified from human saliva”. Besides, the “viral replication in the treated cells” value in [6] (H9 cells cultured 4 days after exposure, p24) is reported as “significantly inhibited”. Further, the “cell-associated virus (HIV-1 attachment to target cells)” value in data set [6] is listed as “not affected”.
